Laboratory results reported in patent US20110021560A1, “Compositions And Methods For Regulating Chondrocyte Proliferation In Bone Disorders” (University of Massachusetts Medical School, priority 2009, published 2011).

Legend:
fracture healing = settings: rats (Simon et al., 2002); cited from earlier work
fracture callous = experiment: Mouse femur fracture model: histology and histomorphometry of fracture callous; assay type: in vivo, C57B/6 mice; settings: for new bone formation by histomorphometry: Day 7 and Day 10, compared with controls; for amount of unmineralized chondroid matrix / callous size: Day 7 and Day 10 post fracture, vs control; for early stages of fracture repair (Safranin-O histology): animals sacrificed at Days 7, 10 and 14, oral gavage, montelukast sodium 1.5 mg/kg/Day, zileuton 45 mg/kg/Day; for fracture bridging and callous remodeling: by Day 21 (data not shown); for amount of chondroid (quantification) / percent chondroid (quantification) / total callous size (quantification): compared to control, montelukast sodium vs zileuton not significant
From the text: Because leukotrienes have been reported as potent inflammatory agents and may have a role as negative regulators of mesenchymal stem cell (MSC) differentiation, it was reasonable to determine as to whether inhibiting the effect of the cysteinyl leukotrienes would enhance chondrocyte proliferation in a bone healing from a fracture. See, Example II. […] Day 0 post-fracture X-rays were taken while under anesthesia. See, FIG. 3. Subsequent X-rays were taken at Days 7, 10, 14, and 21 for all animals (N=4) until the time of sacrifice. […] Histological sections for Days 7, 10, and 14 post-fracture where the differences between treated and control groups were most readily identifiable at early time points. See, FIG. 4. For example, evidence of healing was readily visible between the two treatment groups versus control as early as Day 7.
(§1) C57B/6 mice were purchased (Charles River, Inc.Q3) and housed in the animal facility at the University of Massachusetts Medical School under IACUC approved protocol. Eight- to 9-week-old animals were used in the study.
(§2) Institutional approval was obtained and all procedures were undertaken in accordance with approved IACUC methods. Animals were administered general anesthesia using IP injections of ketamine and xylazine. A midline skin incision over the knee joint was utilized and a median parapatellar arthrotomy was performed to expose the trochlear groove. A pilot hole was made using a 25 gauge needle to gain access to the femoral canal. The central cannula from a 22 gauge spinal needle was inserted into the canal and passed to the proximal femur in retrograde fashion. The wire was backed out slightly, cut, and reinserted. Wounds were closed, and the femur was held in a fixed position while a drop weight from a standard height was used to deliver a fixed traumatic injury to the mid portion of the femur, generating a fracture via three point bending, and ensuring that fractures were generated using a traumatic method with reproducible energy of injury (Marturano et al., 2008).
(§3) Medications were suspended in 1% methylcellulose (Sigma, Inc.Q6) and delivered by direct intragastric delivery. […] As the study medications are both currently FDA approved for the treatment of reactive airway disease, our dosing frequency was based on current prescription guidelines. Montelukast sodium was administered once daily by oral gavage. At the time the study began, zileuton was only approved for four times per Day dosing; as the drug needed to be administered by oral gavage and to maintain the normal sleep/awake cycle of the mouse colonies in the animal facilities, three doses of zileuton were dosed at 6-h intervals, with a 12-h break from 8 pm to 8 am. Control animals received 1% methylcellulose carrier only by a single daily oral gavage. The first dose of all medications was administered on post-fracture Day 1.
All animals were examined pre- and post-fracture using live fluoroscopy with an inverted Xiscan 1000 fluoroscope. Pre-fracture imaging was used to confirm correct positioning of the stabilizing wire, and post-fracture imaging was used to confirm correct fracture location and configuration. Additionally, standard radiographs were obtained in all animals immediately post-fracture with a high resolution MX-20 Faxitron on mammography film. Animals were anesthetized for additional X-rays to document fracture repair at 7, […] Days post-fracture. Animals were sacrificed immediately post-fracture if the fracture was not diaphyseal and transverse.
Fracture specimens were harvested at various times (7, 10, 14, and 21 Days) and fixed in a solution of 4% paraformaldehyde, 0.1% CPC in PBS for 16 h at room temperature, and then embedded in paraffin after decalcification. Embedded tissues were sectioned into […] slices, mounted on silane-coated glass slides (FisherQ7), de-paraffinized, and re-hydrated. […]

[1] = test system: fracture callous mRNA expression; experiment: Quantitative real-time PCR of fracture callous tissue in mouse fracture model; assay type: in vivo, C57B/6 mice; settings: for Col 1 mRNA levels: Day 7, compared with controls (data not shown); for Runx2 mRNA levels: Day 10, vs control (montelukast sodium P<0.05; zileuton P=0.06); for osteocalcin mRNA levels: Day 10, vs control (montelukast sodium P<0.05; zileuton P=0.07); for CysLT1 receptor mRNA levels in fracture callous: Day 10, control peak expression significantly higher; for Col 10a1 mRNA levels: Day 14, vs control (P<0.01)
From the text: Fracture callous was harvested from animals (N=4) in the three treatment groups after sacrifice at days 7, 10, 14, and 21 and assayed for expression of chondrogenic markers by qPCR. See, FIG. 10. […] Although it is not necessary to understand the mechanism of an invention, it is believed that the expression of Sox9 and Col 2a mRNA indicate a cellular commitment to the chondrocyte phenotype.
as §1, §2
as §3, with “Montelukast sodium was administered once daily by oral gavage.” left out
Mice were sacrificed on Days 7, 10, 14, and 21 post-fracture. The fractured limb was carefully dissected free and all overlying tissue was carefully removed to expose the fracture callous. Callous tissue alone was then placed in TRIzol reagent, avoiding the underlying cortical bone. The tissue was ground using a Polytron homogenizer and total RNA was isolated as per the manufacturer's instructions (InvitrogenQ11). Any potential DNA contamination was removed by RNase-free DNase treatment. The reverse transcription reaction was performed on […] of total RNA using the First Strand Synthesis Kit and random hexamer primers (Invitrogen). Relative transcript levels were measured by real-time PCR in a […] reaction volume on 96-well plate using ABI PRISM 7000 FAST sequence detection system (Applied BiosystemsQ12), following the recommended protocol for SYBR-Green (Applied Biosystems). Transcript levels were normalized with 18S ribosomal RNA levels using primers from Applied Biosystems and SYBR-Green master mix (Applied Biosystems). The primers used for amplification are described in Table 2.
Student's t-test was performed to analyze the significance of the data for gene expression and histomorphometric analysis.

[2] = Day 10, vs control (P<0.05 for zileuton)

| Structure (SMILES) | fracture healing (radiographic, histological, mechanical testing) (fracture healing) | new bone formation by histomorphometry (fracture callous) | amount of unmineralized chondroid matrix (fracture callous) | callous size (fracture callous) | early stages of fracture repair (Safranin-O histology) (fracture callous) | fracture bridging and callous remodeling (fracture callous) | amount of chondroid (quantification) (fracture callous) | percent chondroid (quantification) (fracture callous) | total callous size (quantification) (fracture callous) | Col 1 mRNA levels [1] | Col 2a1 mRNA expression [1, 2] | SOX9 mRNA expression [1, 2] | Runx2 mRNA levels [1] | osteocalcin mRNA levels [1] | CysLT1 receptor mRNA levels in fracture callous [1] | Col 10a1 mRNA levels [1] | histone gene expression by qRT-PCR ([1]; data not shown) | Col 2a1 mRNA expression ([1]; Day 14, vs control (P<0.05)) | time of peak Sox9 mRNA levels ([1]; controls peak at day 7) |
| --- | --- | --- | --- | --- | --- | --- | --- | --- | --- | --- | --- | --- | --- | --- | --- | --- | --- | --- | --- |
| Cc1ccc(-c2cc(C(F)(F)F)nn2-c2ccc(S(N)(=O)=O)cc2)cc1 [celecoxib] | fracture healing failed |  |  |  |  |  |  |  |  |  |  |  |  |  |  |  |  |  |  |
| CS(=O)(=O)c1ccc(C2=C(c3ccccc3)C(=O)OC2)cc1 [rofecoxib] | fracture healing failed |  |  |  |  |  |  |  |  |  |  |  |  |  |  |  |  |  |  |
| CC(c1cc2ccccc2s1)N(O)C(N)=O (centres unmarked) [zileuton] |  | significantly greater | markedly increased | dramatically larger | enhances | bridged the ends of the fracture and remodeled the callous to woven bone | significantly greater | significantly greater | significantly greater | decrease | elevated | elevated | increased | elevated | low | significantly higher | higher |  |  |
| CC(C)(O)c1ccccc1CCC(SCC1(CC(=O)O)CC1)c1cccc(C=Cc2ccc3ccc(Cl)cc3n2)c1 (centres unmarked) [montelukast sodium, [1-[[1-[3-[2-[(7-chloro-2-quinolyl)]vinyl]phenyl]-3-[2-(1-hydroxy-1-methyl-1-ethyl)phenyl]-propyl]sulfanylmethyl]-cyclopropyl]acetic acid] |  | significantly greater | markedly increased | dramatically larger | enhances | bridged the ends of the fracture and remodeled the callous to woven bone | significantly greater | significantly greater | significantly greater | decrease | not seen | not seen | higher | elevated | low | higher |  | elevated | peak later than controls at Day 10 |
